Laboratory results reported in ChEMBL document CHEMBL4840358, “Discovery of Modified Amidate (ProTide) Prodrugs of Tenofovir with Enhanced Antiviral Properties” (J Med Chem, 2021).
Converted amounts (≈) assume the structure as drawn. Counter-ions that a name gives are not always drawn.

Legend:
Hepatitis B virus = assay: Antiviral activity against HBV infected in human HepG2-hNTCP cells assessed as reduction in HBV DNA incubated for day 1 followed by compound washout and fresh compound addition on following day and day 3, 6 and 10 measured on day 14 post infection by qPCR analysis; format: functional, organism-based
[1] = Cytotoxicity against human HepG2-hNTCP cells incubated for 3 days by XTT assay; format: cell-based; details: time 3 day
[2] = Cytotoxicity against in human MT4 cells after 5 days by XTT assay; format: cell-based; details: time 5 day
[3] = Selectivity index, ratio of CC50 for human MT-4 cells to EC50 for HIV-1 infected in MT-4 cells; format: toxicity, cell-based; details: read-out: Ratio CC50/EC50
[4] = test system: Human immunodeficiency virus 1; assay: Antiviral activity against HIV-1 infected in MT4 cells assessed as reduction in virus-induced cytopathic effect preincubated for 1 hr followed by viral infection and measured after 5 days by XTT assay; format: functional, organism-based; details: Human immunodeficiency virus 1, MT4
[5] = Drug uptake in human CCRF-CEM cells assessed as intracellular intact prodrug level at 50 uM after 45 mins by ECHO-MS analysis; format: ADME, cell-based; details: 0.75 h
[6] = biological target: T1, Lysosomal protective protein (Homo sapiens) (UniProt P10619); assay: Substrate activity at cathepsin A (unknown origin) at 30 uM after 30 mins
T1 sequence (whole entry): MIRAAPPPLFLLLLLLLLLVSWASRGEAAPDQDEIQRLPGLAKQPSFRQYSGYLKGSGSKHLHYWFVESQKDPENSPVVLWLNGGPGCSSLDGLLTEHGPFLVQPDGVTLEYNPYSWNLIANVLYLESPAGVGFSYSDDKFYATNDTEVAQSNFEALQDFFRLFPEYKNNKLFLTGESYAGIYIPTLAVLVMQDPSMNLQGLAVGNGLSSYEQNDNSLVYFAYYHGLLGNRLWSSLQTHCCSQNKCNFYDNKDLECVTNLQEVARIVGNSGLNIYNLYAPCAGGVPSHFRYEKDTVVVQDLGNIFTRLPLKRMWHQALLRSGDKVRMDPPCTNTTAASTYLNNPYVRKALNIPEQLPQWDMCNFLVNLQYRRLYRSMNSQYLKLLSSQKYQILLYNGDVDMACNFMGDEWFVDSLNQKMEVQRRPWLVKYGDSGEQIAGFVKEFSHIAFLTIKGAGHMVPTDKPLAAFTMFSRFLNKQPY

[7] = Drug uptake in human CCRF-CEM cells assessed as released tenofovir level at 50 uM after 45 mins by ECHO-MS analysis; format: ADME, cell-based; details: 0.75 h
[8] = Stability of compound in pooled human plasma assessed as compound remaining at 5 uM measured for 120 to 240 mins by ECHO-MS analysis; format: ADME, cell-free; details: time 120-240 min, read-out: Stability
[9] = Stability of compound in pooled human plasma assessed as half life at 5 uM measured for 120 to 240 mins by ECHO-MS analysis; format: ADME, cell-free; details: time 120-240 min
[10] = Stability of compound in pooled human hepatic microsomes assessed as compound remaining at 5 uM measured upto 30 mins in presence of NADPH by ECHO-MS analysis; format: ADME, Microsome; details: pooled liver microsomes, read-out: Stability
[11] = Solubility of compound in water at 25 uM after 24 hrs by HPLC analysis; format: physicochemical
[12] = test system: Human immunodeficiency virus 1; assay: Antiviral activity against HIV-1; format: functional, organism-based
[13] = Drug metabolism in human liver microsomes assessed as formation of metabolite 1; format: ADME, Microsome
[14] = Chemical stability of compound in pH 1.5 NaCl-HCl buffer at 25 uM after 24 hrs by HPLC analysis; format: physicochemical; details: pH 1.5, 24 h
[15] = Chemical stability of compound in pH 4.5 citrate buffer at 25 uM after 24 hrs by HPLC analysis; format: physicochemical; details: pH 4.5, 24 h
[16] = Chemical stability of compound in pH 10 NaOH-glycin buffer at 25 uM after 24 hrs by HPLC analysis; format: physicochemical; details: pH 10, 24 h
[17] = Drug metabolism assessed as M1 metabolite formation; format: ADME
[18] = Drug metabolism assessed as M11 metabolite formation; format: ADME
[19] = Drug metabolism assessed as M12 metabolite formation; format: ADME
[20] = Drug metabolism assessed as M5 metabolite formation; format: ADME
[21] = Drug metabolism assessed as M9 metabolite formation; format: ADME

Compound | EC50 (Hepatitis B virus) [nM] | CC50 at 72 h [1] [nM] | CC50 at 120 h [2] [nM] | selectivity ratio [3] | EC50 [4] [nM] | Drug uptake [5] [pmol] | Activity [6] [pmol/min/mg] | Drug uptake [7] [pmol] | remaining at 5 µM [8] [%] | remaining at 0.5 h, 5 µM [10] [%] | also measured
CC(C)OC(=O)[C@H](C)N[P@](=O)(CO[C@H](C)Cn1cnc2c(N)ncnc21)Oc1ccc(C[C@H](NCCCc2ccccc2)C(=O)OC2CCCC2)cc1 | 19 | > 50000 | 6000 | 21400 | 0.28 |  |  |  |  |  | 
CC(C)OC(=O)[C@H](C)N[P@@](=O)(CO[C@H](C)Cn1cnc2c(N)ncnc21)Oc1ccc(C[C@H](NC(=O)OCc2ccccc2)C(=O)CC2CCCC2)cc1 | 3.4 | > 50000 | 7600 |  | 0.15 | 248 | 30.3 | 78.88 |  |  | 
CC(C)OC(=O)[C@H](C)N[P@@](=O)(CO[C@H](C)Cn1cnc2c(N)ncnc21)Oc1ccc(C[C@H](NC(=O)OCc2ccccc2)C(=O)OC2CCCC2)cc1 |  |  | 17000 |  | 16 | 0.22 | 35.9 | 20.25 | 56 | 0.01 | half-life at 5 µM [9]: 4.62 h
CC(C)OC(=O)[C@H](C)N[P@](=O)(CO[C@H](C)Cn1cnc2c(N)ncnc21)Oc1ccc(C[C@H](NC(=O)OCc2ccccc2)C(=O)CC2CCCC2)cc1 | 2.8 | > 50000 | 9200 | 1.53e+06 | 0.006 | 102.36 | 39.7 | 148.09 | 88 | 0.04 | 
CC(C)OC(=O)[C@H](C)N[P@](=O)(CO[C@H](C)Cn1cnc2c(N)ncnc21)Oc1ccc(C[C@H](NC(=O)CCc2ccccc2)C(=O)OC2CCCC2)cc1 | 4.4 | > 50000 | 8800 | 880000 | 0.01 | 0.37 | 26 | 64.26 | 76 | 0.01 | 
CC(C)OC(=O)[C@H](C)N[P@](=O)(CO[C@H](C)Cn1cnc2c(N)ncnc21)Oc1ccc(C[C@H](NC(=O)OCc2ccccc2)C(=O)OC2CCCC2)cc1.O=C(O)/C=C/C(=O)O |  |  |  |  |  |  |  |  |  |  | solubility at 24 h, 25 µM [11]: 104 µM
CC(C)OC(=O)[C@H](C)N[P@](=O)(CO[C@H](C)Cn1cnc2c(N)ncnc21)Oc1ccccc1.CC(C)OC(=O)[C@H](C)N[P@](=O)(CO[C@H](C)Cn1cnc2c(N)ncnc21)Oc1ccccc1.O=C(O)/C=C/C(=O)O [TENOFOVIR ALAFENAMIDE FUMARATE] | 5.3 | > 50000 | 35000 | 5470 | 6.4 | 0.3 | 25.8 | 21.19 | 44 | 70 | half-life at 5 µM [9]: 3.45 h; solubility at 24 h, 25 µM [11]: > 1000 µM; EC50 [12]: 5 nM
CC(C)OC(=O)OCOP(=O)(CO[C@H](C)Cn1cnc2c(N)ncnc21)OCOC(=O)OC(C)C [TENOFOVIR DISOPROXIL FUMARATE] |  |  |  | 656 |  |  |  |  |  |  | EC50 [12]: 50 nM
CC(C)OC(=O)[C@H](C)N[P@](=O)(CO[C@H](C)Cn1cnc2c(N)ncnc21)Oc1ccc(C[C@H](NCCCc2ccccc2)C(=O)CC2CCCC2)cc1 |  |  | 48000 | 800000 | 0.06 | 11.37 | 16.3 | 304.5 | 77 | 1 | 
CC(C)OC(=O)[C@H](C)N[P@](=O)(CO[C@H](C)Cn1cnc2c(N)ncnc21)Oc1ccc(C[C@H](NC(=O)OCc2ccccc2)C(=O)OC2CCCC2)cc1 [listing 1 of 2 here] |  |  | 10000 | 143000 | 0.07 | 0.19 |  | 73.7 | 75 | 0.01 | half-life at 5 µM [9]: 9.63 h; solubility at 24 h, 25 µM [11]: 53.5 µM (≈ 41 µg/mL); Drug metabolism [13]: Metabolite_Detected; Stability [14]: Unstable; Stability [15]: Stable; Stability [16]: Unstable
CC(C)OC(=O)[C@H](C)N[P@@](=O)(CO[C@H](C)Cn1cnc2c(N)ncnc21)Oc1ccc(C[C@H](NCCCc2ccccc2)C(=O)CC2CCCC2)cc1 |  |  | 7300 |  | 9.6 | 266.22 | 10.2 | 50.12 |  |  | Drug metabolism [17]: Metabolite_Detected; Drug metabolism [18]: Metabolite_Detected; Drug metabolism [19]: Metabolite_Detected; Drug metabolism [20]: Metabolite_Detected; Drug metabolism [21]: Metabolite_Detected
CC(C)OC(=O)[C@H](C)N[P@@](=O)(CO[C@H](C)Cn1cnc2c(N)ncnc21)Oc1ccc(C[C@H](NC(=O)CCc2ccccc2)C(=O)OC2CCCC2)cc1 | 1.4 | > 50000 | 11000 |  | 0.36 | 0.12 | 29.5 | 27.89 |  |  | 
CC(C)OC(=O)[C@H](C)N[P@](=O)(CO[C@H](C)Cn1cnc2c(N)ncnc21)Oc1ccc(C[C@H](NC(=O)OCc2ccccc2)C(=O)OC2CCCC2)cc1 [listing 2 of 2 here] |  |  |  |  |  |  | 33.6 |  |  |  | 
CC(C)OC(=O)[C@H](C)N[P@](=O)(CO[C@H](C)Cn1cnc2c(N)ncnc21)Oc1ccc(C[C@H](NC(=O)OCc2ccccc2)C(=O)OC2CCCC2)cc1.Cl |  |  |  |  |  |  |  |  |  |  | solubility at 24 h, 25 µM [11]: 210 µM
C[C@H](Cn1cnc2c(N)ncnc21)OCP(=O)(O)O [TENOFOVIR ANHYDROUS] |  |  |  | 36 |  |  |  |  |  |  | EC50 [12]: 5000 nM
